IC50 data for 27 molecules are collected here from patent US20240025883A1, “PYRIMIDIN-2-YL SULFONAMIDE DERIVATIVES” (Hoffmann-La Roche Inc., priority 2021, published 2024).

Chain of human GPR17 short isoform (Q13304 29-367): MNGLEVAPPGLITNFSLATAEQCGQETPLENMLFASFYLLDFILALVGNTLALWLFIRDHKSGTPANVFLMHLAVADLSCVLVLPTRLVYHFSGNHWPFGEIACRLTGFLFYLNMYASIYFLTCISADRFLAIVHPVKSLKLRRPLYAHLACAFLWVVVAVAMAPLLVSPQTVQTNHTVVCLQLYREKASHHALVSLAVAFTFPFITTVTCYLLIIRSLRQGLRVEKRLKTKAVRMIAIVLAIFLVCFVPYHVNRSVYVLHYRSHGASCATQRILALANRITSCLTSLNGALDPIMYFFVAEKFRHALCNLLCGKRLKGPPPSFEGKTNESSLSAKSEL

For this assay, the target named is human GPR17 short isoform (Homo sapiens (Human), UniProt Q13304). The assay can be described thus: GPR17 cAMP assay (hGPR17 cAMP, antagonist mode against EC80 of MDL29,951). The class given is cell-based. Particulars: CHO-K1 cells stably expressing human GPR17 short isoform; EC80 of agonist MDL29,951; forskolin 15 μM. How it is done: GPR17 cAMP Assay Protocol:
CHO-K1 cells stably expressing vector containing untagged human GPR17 short isoform (Roche) were cultured at 37° C./5% CO2 in DMEM (Dulbecco's Modified Eagle Medium):F-12 (1:1) supplemented with 10% foetal bovine serum and 400 μg/ml Geneticin.
Changes in intracellular cyclic adenosine monophosphate (cAMP) levels were quantified using the Nano-TRF Detection Assay kit (Roche Diagnostics, Cat. No. 05214386001). This assay allows for direct cAMP quantification in a homogeneous solution, cAMP is detected based on time-resolved fluorescence energy transfer (TR-FRET) and competitive binding of ruthenylated cAMP and endogenous cAMP to an anti-cAMP monoclonal antibody labeled with AlexaFluor-700. The Ruthenium complex serves as the FRET donor and transfers energy to AlexaFluor-700. The FRET signal is inversely proportional to the cAMP concentration.
CHO-GPR17S cells were detached with Accutase and resuspended in assay buffer consisting of Hank's Balanced Salt Solution (HBSS), 10 mM HEPES (4-(2-hydroxyethyl) piperazine-1-ethanesulfonic acid solution) and 0.1% bovine serum albumin (pH 7.4). The cells were seeded in black 384-well plates (Corning) at a density of 10,000 cells/20 μl assay buffer until the addition of compounds.
Test antagonist compounds were serially diluted in dimethyl sulfoxide (DMSO) and spotted in 384-well plates. The compounds were then diluted in HBSS buffer supplemented with an EC80 concentration of MDL29,951 (3-(2-Carboxy-4,6-dichloroindol-3-yl)propionic acid) (GPR17 agonist) plus 3-Isobutyl-1-methylxanthine (IBMX) (0.5 mM final concentration) and added to the cells at room temperature. Forskolin (15 μM final concentration) was added 5 minutes after the test compounds and the cells were incubated at room temperature for 30 minutes. The assay was stopped by adding cAMP detection mix (containing detergents for cell lysis) for 90 minutes at room temperature.
Cellular cAMP was measured using a Paradigm reader (Molecular Devices). The raw data was used to calculate the FRET signal based on the assay's P-factor as per cAMP kit instructions. The data was normalized to the maximal activity of a reference antagonist and dose response curves were fitted to the percent activity of the test compounds using a sigmoidal dose response model (Genedata Screener).
`COc1nc(NS(=O)(=O)c2c[nH]c3cc(Cl)ccc23)ncc1OCC#N` [Example 267, 6-chloro-N-[5-(cyanomethoxy)-4-methoxy-pyrimidin-2-yl]-1H-indole-3-sulfonamide] registered an IC50 of 49 nM.

With `COc1nc(NS(=O)(=O)c2c[nH]c3cc(Cl)ccc23)nc(OC)c1CC#N` [Example 67, 6-chloro-N-[5-(cyanomethyl)-4,6-dimethoxy-pyrimidin-2-yl]-1H-indole-3-sulfonamide], the concentration for half-maximal inhibition (IC50) was 65 nM. In the case of `COc1nc(NS(=O)(=O)c2c[nH]c3cc(Cl)ccc23)ncc1CC(F)(F)C(F)F` [Example 261, 6-chloro-N-[4-methoxy-5-(2,2,3,3-tetrafluoropropyl)pyrimidin-2-yl]-1H-indole-3-sulfonamide] it was 91 nM; in that of `CCCc1c(OC)nc(NS(=O)(=O)c2c[nH]c3cc(Cl)ccc23)nc1OC` [Example 58, 6-chloro-N-(4,6-dimethoxy-5-propyl-pyrimidin-2-yl)-1H-indole-3-sulfonamide], 17 nM. As for `COc1nc(NS(=O)(=O)c2c[nH]c3cc(Br)ccc23)ncc1OCC(F)F` [Example 143, 6-bromo-N-[5-(2,2-difluoroethoxy)-4-methoxy-pyrimidin-2-yl]-1H-indole-3-sulfonamide], the figure is 109 nM; as for `COc1nc(NS(=O)(=O)c2c[nH]c3cc(C(F)F)ccc23)nc(OC)c1CCC#N` [Example 103, N-[5-(2-cyanoethyl)-4,6-dimethoxy-pyrimidin-2-yl]-6-(difluoromethyl)-1H-indole-3-sulfonamide], 11 nM.

`COc1nc(NS(=O)(=O)c2c[nH]c3nc(C(F)F)ccc23)nc(OC)c1CCC#N` [Example 239, N-[5-(2-cyanoethyl)-4,6-dimethoxy-pyrimidin-2-yl]-6-(difluoromethyl)-1H-pyrrolo[2,3-b]pyridine-3-sulfonamide] had an IC50 of 46 nM. `COc1nc(NS(=O)(=O)c2csc3cc(Cl)ccc23)ncc1CC(F)F` [Example 154, 6-chloro-N-[5-(2,2-difluoroethyl)-4-methoxy-pyrimidin-2-yl]benzothiophene-3-sulfonamide] displayed an IC50 of 45 nM.

`COc1nc(NS(=O)(=O)c2c[nH]c3c(F)c(Cl)ccc23)ncc1CCC#N` [Example 216, 6-chloro-N-[5-(2-cyanoethyl)-4-methoxy-pyrimidin-2-yl]-7-fluoro-1H-indole-3-sulfonamide] showed an IC50 of 43 nM. `COc1nc(NS(=O)(=O)c2c[nH]c3c(OCF)c(Cl)ccc23)ncc1CC(F)F` [Example 198, 6-chloro-N-[5-(2,2-difluoroethyl)-4-methoxy-pyrimidin-2-yl]-7-(fluoromethoxy)-1H-indole-3-sulfonamide] had an IC50 of 36 nM. As for `COc1nc(NS(=O)(=O)c2c[nH]c3cc(Br)ccc23)nc(OC)c1OCC#N` [Example 246, 6-bromo-N-[5-(cyanomethoxy)-4,6-dimethoxy-pyrimidin-2-yl]-1H-indole-3-sulfonamide], the figure is 19 nM. The molecule `COc1nc(NS(=O)(=O)c2c[nH]c3c(SC(F)F)c(Cl)ccc23)nc(OC)c1OCCF` [Example 106, 6-chloro-7-(difluoromethylthio)-N-[5-(2-fluoroethoxy)-4,6-dimethoxy-pyrimidin-2-yl]-1H-indole-3-sulfonamide] showed an IC50 of 7 nM. Consider `COc1nc(NS(=O)(=O)c2c[nH]c3cc(Cl)ccc23)nc(OC)c1CCF` [Example 59, 6-chloro-N-[5-(2-fluoroethyl)-4,6-dimethoxy-pyrimidin-2-yl]-1H-indole-3-sulfonamide], for which the IC50 amounted to 13 nM. `CC#Cc1cnc(NS(=O)(=O)c2c[nH]c3cc(Cl)ccc23)nc1OC` [Example 29, 6-chloro-n-(4-methoxy-5-prop-1-ynyl-pyrimidin-2-yl)-1h-indole-3-sulfonamide] gave an IC50 of 80 nM. In the case of `COc1nc(NS(=O)(=O)c2c[nH]c3nc(Cl)ccc23)nc(OC)c1CCC(F)F` [Example 121, 6-chloro-N-[5-(3,3-difluoropropyl)-4,6-dimethoxy-pyrimidin-2-yl]-1H-pyrrolo[2,3-b]pyridine-3-sulfonamide] it was 16 nM; in that of `COc1nc(NS(=O)(=O)c2c[nH]c3nc(Cl)ccc23)nc(OC)c1OCCF` [Example 221, 6-chloro-N-[5-(2-fluoroethoxy)-4,6-dimethoxy-pyrimidin-2-yl]-1H-pyrrolo[2,3-b]pyridine-3-sulfonamide], 65 nM. As to `COc1nc(NS(=O)(=O)c2csc3cc(Br)ccc23)ncc1OCC(F)F` [Example 157, 6-bromo-N-[5-(2,2-difluoroethoxy)-4-methoxy-pyrimidin-2-yl]benzothiophene-3-sulfonamide], the IC50 stood at 176 nM. As for `C=CCc1c(OC)nc(NS(=O)(=O)c2c[nH]c3cc(Cl)ccc23)nc1OC` [Example 56, N-(5-allyl-4,6-dimethoxy-pyrimidin-2-yl)-6-chloro-1H-indole-3-sulfonamide], the figure is 13 nM. In the case of `COc1nc(NS(=O)(=O)c2c[nH]c3c(F)c(Br)ccc23)ncc1OCCF` [Example 213, 6-bromo-7-fluoro-N-[5-(2-fluoroethoxy)-4-methoxy-pyrimidin-2-yl]-1h-indole-3-sulfonamide] it was 34 nM. In the case of `COc1nc(NS(=O)(=O)c2csc3cc(Br)ccc23)ncc1OC(F)F` [Example 268, 6-bromo-N-[5-(difluoromethoxy)-4-methoxy-pyrimidin-2-yl]benzothiophene-3-Sulfonamide] it was 165 nM; in that of `COc1nc(NS(=O)(=O)c2c[nH]c3c2ccc2cccnc23)nc(OC)c1CC(F)F` [Example 169, N-[5-(2,2-difluoroethyl)-4,6-dimethoxy-pyrimidin-2-yl]-1H-pyrrolo[3,2-h]quinoline-3-sulfonamide], 20 nM. Molecule `COc1nc(NS(=O)(=O)c2c[nH]c3cc(Cl)ccc23)ncc1SC` [Example 36, 6-chloro-N-(4-methoxy-5-methylsulfanyl-pyrimidin-2-yl)-1H-indole-3-sulfonamide] had an IC50 of 119 nM.

In the case of `COc1nc(NS(=O)(=O)c2c[nH]c3c(Cl)c(Cl)ccc23)ncc1OCCF` [Example 3, 6,7-dichloro-N-[5-(2-fluoroethoxy)-4-methoxy-pyrimidin-2-yl]-1H-indole-3-sulfonamide], the half-maximal inhibitory concentration (IC50) stood at 50 nM. As for `COc1nc(NS(=O)(=O)c2c[nH]c3cc(C4COC4)ccc23)ncc1CC(F)F` [Example 272, N-[5-(2,2-difluoroethyl)-4-methoxy-pyrimidin-2-yl]-6-(oxetan-3-yl)-1h-indole-3-sulfonamide], the figure is 1180 nM; as for `COc1nc(NS(=O)(=O)c2c[nH]c3cc(Cl)ccc23)nc(OC)c1CCC(F)(F)F` [Example 64, 6-chloro-N-[4,6-dimethoxy-5-(3,3,3-trifluoropropyl)pyrimidin-2-yl]-1H-indole-3-sulfonamide], 39 nM. As for `CCc1c(OC)nc(NS(=O)(=O)c2c[nH]c3cc(Cl)ccc23)nc1OC` [Example 16, 6-chloro-N-(5-ethyl-4,6-dimethoxy-pyrimidin-2-yl)-1H-indole-3-sulfonamide], the figure is 23 nM; as for `COc1nc(NS(=O)(=O)c2c[nH]c3nc(Cl)ccc23)nc(OC)c1Br` [Example 31, N-(5-bromo-4,6-dimethoxy-pyrimidin-2-yl)-6-chloro-1h-pyrrolo[2,3-b]pyridine-3-sulfonamide], 76 nM.
